Experimental data taken from article PMC9343080, “Distribution- and Metabolism-Based Drug Discovery: A Potassium-Competitive Acid Blocker as a Proof of Concept” (Research, 2022).
Like-named read-outs stand apart in the source and are kept apart here.

Legend:
[1] = Metabolite identification and profiling in rat hepatocytes; format: in vitro ADME; conditions: SH-337, rat hepatocytes, 60 min incubation
Description: (§1) SH-337 was incubated with rat or human hepatocytes at a concentration of 1.0 × 10^6 cells/mL for 60 min or 120 min (rat 60 min, human 120 min) at 37°C in a CO2 incubator. The samples were precipitated with acetonitrile at 1 : 2 and further centrifuged; the supernatants were dried with a stream of N2 gas. The residues were reconstituted with 300 μL of 10% acetonitrile/H2O (0.1% TFA) and analyzed by LC-MS/MS. The assays were pursued under the conditions provided in Supplementary Tables S5–S8.

[2] = Human microsomal stability; format: in vitro ADME
Description: (§2) The in vitro metabolic stabilities of selected compounds were performed using human and rat liver microsomes in triplicate as described previously.

[3] = Metabolite identification and profiling in rat liver microsomes; format: in vitro ADME; conditions: SH-337 10 µM, 30 min incubation
Description: (§3) Liver microsomes (1 mg protein/mL) were suspended in phosphate buffer (50 mM, pH 7.4) containing MgCl2 (6 mM). […] The reactions were initiated at 37°C by the addition of 1 mM NADPH and terminated at 30 min or 60 min (30 min for rat; 60 min for human). The samples were precipitated with acetonitrile at 1 : 2 and further centrifuged; the supernatants were dried with a stream of N2 gas. The residues were reconstituted with 300 μL of 10% acetonitrile/H2O (0.1% TFA) and analyzed by LC-MS/MS. The assays were pursued under the conditions provided in Supplementary Tables S4, S6, S7, and S8.

[4] = Metabolite identification and profiling in human hepatocytes; format: in vitro ADME; conditions: SH-337, human hepatocytes, 120 min incubation
Description: as §1

[5] = Metabolite identification and profiling in human liver microsomes; format: in vitro ADME; conditions: SH-337 10 µM, 60 min incubation
Description: as §3

Rat microsomal stability = format: in vitro ADME
Description: as §2

[6] = system: 2-DG-stimulated gastric acid secretion; experiment: In vivo inhibition of 2DG-stimulated acid secretion in anesthetized rats; parameters: species or system rat
Description: 60 SPF SD rats weighing 180-220 g were randomly divided into […]: sham, model, SH-337 (2 mg/kg and 4 mg/kg), vonoprazan (2 mg/kg), males and females are equally divided. Fasting for 24 hours, model and sham groups were treated with deionized water. Drugs and vehicle were given through intragastric administration to rats before anesthesia. 1 h after administration, pylorus was ligated. 5 min later, histamine 2HCl (30 mg/10 mL/kg) was injected subcutaneously. At 3 h after histamine administration, the rats were killed by CO2 asphyxiation. The gastric contents were collected in a 10 mL centrifuge tube after removing their stomachs. Centrifuge at 3000 g for 10 min, and then, determine the total acid output during a 3 h period by 0.1 M NaOH [52, 53]. %Inhibition = (average of modelacid–drugacid)/average of modelacid × 100%.
The 2DG-stimulated acid secretion in anesthetized rats was measured as described as for histamine-stimulated acid secretion, with the exception that 5 min after pylorus ligation, 2-DG (200 mg/10 mL/kg) was injected subcutaneously.

[7] = pKa measurement (pH-metric method); format: physicochemical
Description: (§4) Procedure for pKa and log D7.4 measurements. The pKa was determined using pH-metric Method from DMSO Stock Solution. Procedure for Log D determinations: 15 µL of stock solutions of test compounds and control compound was placed in order into their proper 96-well rack. 500 µL of PBS saturated 1-octanol was added into each vial of the cap-less Log D plate followed by the addition of 500 µL of 1-octanol saturated PBS (pH 7.4). One stir stick was added to each vial and a molded PTFE/Silicone plug was used to seal each vial. Then the Log D plate was transferred to the Eppendorf Thermomixer Comfort plate shaker and shaken at 25°C at 1,100 RPM for 1 hour. After completion of 1 hour, plugs were removed and the stir sticks were removed using a big magnet. The samples were then centrifuged at 25°C at 20,000 g for 20 minutes to separate the phases, and pipette and syringe were used to remove the upper (1-octanol) and lower (buffer) phases to the empty tubes, respectively. Aliquots of 5 µL were taken from upper phases followed by addition of 495 µL of a mixture of H2O and acetonitrile (1:1 in v/v). Vortex for 1 minute, and then aliquots of 50 µL were taken from the diluent followed by addition of 450 µL of a mixture of H2O and acetonitrile (1:1 in v/v). And aliquots of 50 µL were taken from lower phases followed by addition of 450 µL of a mixture of H2O and acetonitrile (1:1 in v/v). 200 μL of diluent was transferred to a new 96-well plate for LC-MS/MS analysis. The dilution factor was changed according to the Log D value and the LC-MS signal response. The concentrations of test compound and control compound in 1-octanol/buffer solution were evaluated by LC-MS/MS. The Log D values of the test compounds and control compound were calculated as follows: […]

[8] = log D7.4 measurement (1-octanol/PBS pH 7.4); format: physicochemical
Description: as §4

[9] = Acute (single-dose) toxicity test; format: in vivo; conditions: SD rats, single dose of 1000 mg/kg, i.g.
Description: For acute toxicity test: 12 SPF SD rats were randomly divided into three groups and received a single dose of SH-337 (1000 mg/kg, i.g.), and the animal tolerance was recorded within 2 hours. For two-week repeat-dose toxicity test: 20 SPF SD rats were randomly divided into two groups and received SH-337 (100, 200 mg/kg, i.g.) once daily for 14 days. SH-337 was dissolved in 0.5% CMC-Na. The body weight of the rats was recorded every 7 days. During the experiment, clinical parameters included apparent changes in the mental state, skin or fur, behavior, genitals, mucous membranes, respiration, stool consistency, glandular organ secretions, mortality, or other toxic results that were recorded. In addition, animal bodyweight and food intake were assessed once weekly over the study period. At the end of the experiment, the rats were sacrificed, and the serum hematological parameters and serum biochemistry parameters were recorded.

For CNCc1cc(-c2ccc(OCC3CC3)cc2F)n(S(=O)(=O)c2cccnc2)c1.Cl.Cl [SH-337, 1-(5-(4-(cyclopropylmethoxy)-2-fluorophenyl)-1-(pyridin-3-ylsulfonyl)-1H-pyrrol-3-yl)-N-methylmethanamine dihydrochloride], the “Relative peak area, RHeps” value [1] was 28.2%, the “fold reduction of t1/2 vs. vonoprazan” value ([2]; human microsomes) was 4.2 fold and the half-life ([2]; human, human liver microsomes, read-out: Metabolic stability (t1/2) human) was 81.4 min. For the same compound, the “Relative peak area, RLMs” value [3] was 45.7%, the “Relative peak area, Hheps” value [4] was 76.5% and the “Relative peak area, HLMs” value [5] was 68.9%. The “fold reduction of t1/2 vs. vonoprazan” value (Rat microsomal stability; rat microsomes) was 17.6 fold, the half-life (Rat microsomal stability; rat, rat liver microsomes, read-out: Metabolic stability (t1/2) rat) was 3.1 min and the “Inhibition (%), 2-DG-stimulated model” value ([6]; i.g. 2 mg/kg) was 78%. For the same compound, the “Total acid output, 2-DG-stimulated model” value ([6]; i.g. 2 mg/kg) was 0.65 ± 0.31^∗∗ 10^−4 mol, the “Inhibition (%), 2-DG-stimulated model” value ([6]; i.g. 4 mg/kg) was 91% and the “Total acid output, 2-DG-stimulated model” value ([6]; i.g. 4 mg/kg) was 0.29 ± 0.29^∗∗ 10^−4 mol. The pKa [7] was 9.03, the pKa ([7]; read-out: pKa) was 9 and the logD at 1 h ([8]; 1-octanol/PBS, pH 7.4, pH 7.4) was 1.3. The “log D7.4” value ([8]; pH 7.4) was 1.28, the animal death [9] was “no animal death was observed” and the “single-dose toxicity (tolerance)” value [9] was “well tolerated”.
